In US20120190751A1, “COMPOUNDS FOR TREATMENTS OF INFLAMMATION” (ANA-MAR AB, priority 2009, published 2012):
pIC50, pKi: −log10 of the molar value.

Legend:
5-HT2C receptor [1] = biological target: T1, 5-HT2C receptor (Homo sapiens, UniProt P28335); experiment: Radio-ligand binding assay 5-HT2C
T1 sequence (P28335 33-458): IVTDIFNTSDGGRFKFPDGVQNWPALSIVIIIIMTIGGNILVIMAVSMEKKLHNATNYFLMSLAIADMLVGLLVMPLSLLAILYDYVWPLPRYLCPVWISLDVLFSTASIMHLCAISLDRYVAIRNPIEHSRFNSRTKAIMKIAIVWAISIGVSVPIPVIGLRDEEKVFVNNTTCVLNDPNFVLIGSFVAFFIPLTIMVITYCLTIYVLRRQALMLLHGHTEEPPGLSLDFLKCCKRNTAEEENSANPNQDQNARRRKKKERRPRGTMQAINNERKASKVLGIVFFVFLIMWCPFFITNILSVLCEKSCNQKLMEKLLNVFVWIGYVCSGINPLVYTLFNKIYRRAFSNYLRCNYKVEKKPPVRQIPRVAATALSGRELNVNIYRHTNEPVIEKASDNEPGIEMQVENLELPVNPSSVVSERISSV
Experimental: (§1) Determination of binding affinities for various 5-HT receptors was performed by radio-ligand binding assays. Briefly, tissue or cells expressing the receptor of interest were suspended in incubation buffer and radio-ligands and 10 μM N-(2-chloro-3,4-dimethoxybenzylidene-amino)guanidine were added. After incubation, separation of bound and free radio-ligand was done by multiple washings with buffer.
(§2) The results were presented as the percent inhibition of specific binding. The IC50 values were determined by a non-linear least square regression analysis using MathIQ™ (ID Business Solution Ltd., UK). The inhibition constants (Ki) were calculated using the equation of Cheng and Prusoff (Cheng Y, Prusoff W H, Biochem. Pharmacol. 22:3099-3108, 1973) using the observed IC50 of the tested compound, the concentration of radioligand employed in the assay and the historical values for the KD of the ligand.

5-HT2C receptor [2] = biological target: T1, 5-HT2C receptor; experiment: 5-HT2C GTPγS binding assay (functionality); type: biochemical; details: FIG. 2, read-out: IC50, antagonistic effect on 5-HT2C
Experimental: (§3) FIG. 2. Antagonistic effect of N-(2-chloro-3,4-dimethoxybenzylideneamino)guanidine on 5-HT2B and 5-HT2C receptors. The functionality of the compound was evaluated with the 5-HT2B tissue assay and the 5-HT2C GTPγS binding assay methods.
(§4) N-(2-chloro-3,4-dimethoxybenzylideneamino)guanidine was further tested for functionality against 5-HT2B (Cohen et al. (1987), J. Pharmacol. Exp. Ther. 243:264-269), 5-HT2C (Adlersber M, et al. (2000), J. Neurosci. Res. 61(6):674-685; Cussac D. et al. (2002), Mol. Pharmacol. 62(3):578-589) and 5-HT4 (Reeves et al. (1991), Br. J. Pharmacol. 103:1067-1072).

5-HT2B receptor = biological target: T2, 5-HT2B receptor (Rattus norvegicus, UniProt P30994); experiment: 5-HT2B tissue assay (functionality, rat stomach fundus contraction); type: cell-based; details: FIG. 2, read-out: IC50, antagonistic effect on 5-HT2B
T2 construct: induces contraction in the rat stomach fundus from Wistar rats; from tissue; host or cells: rat (Wistar) stomach fundus
Experimental: (Cohen M L, Fludzinski L A. Contractile serotonergic receptor in rat stomach fundus. J. Pharmacol. Exp. Ther. (1987 October); 243(1):264-269.)
as §3, §4

5-HT3 receptor = biological target: T3, 5-HT3 receptor (Homo sapiens, UniProt P46098); experiment: Radio-ligand binding assay 5-HT3; details: 10 μM compound; [3H] GR65630 35 nM; human rec. HEK293 cells
T3 sequence (P46098 24-478): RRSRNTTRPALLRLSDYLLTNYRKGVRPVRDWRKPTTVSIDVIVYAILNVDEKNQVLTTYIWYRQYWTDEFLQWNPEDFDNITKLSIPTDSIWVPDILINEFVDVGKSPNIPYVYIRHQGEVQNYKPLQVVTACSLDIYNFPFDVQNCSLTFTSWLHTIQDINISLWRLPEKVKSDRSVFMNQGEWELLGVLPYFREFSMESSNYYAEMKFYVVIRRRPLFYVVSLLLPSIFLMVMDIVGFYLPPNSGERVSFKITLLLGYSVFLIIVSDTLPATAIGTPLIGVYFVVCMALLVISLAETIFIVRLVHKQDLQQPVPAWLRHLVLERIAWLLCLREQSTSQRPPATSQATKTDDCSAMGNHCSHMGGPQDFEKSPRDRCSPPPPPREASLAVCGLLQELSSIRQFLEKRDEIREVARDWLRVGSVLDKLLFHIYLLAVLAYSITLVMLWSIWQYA
Experimental: as §1, §2

5-HT1D receptor = 5-HT1D receptor (Homo sapiens, UniProt P28221); experiment: Radio-ligand binding assay 5-HT1D; details: 10 μM compound; [3H]-5-CT 2 nM; human cortex
Experimental: as §1, §2

5-HT6 receptor = 5-HT6 receptor (Homo sapiens, UniProt P50406); experiment: Radio-ligand binding assay 5-HT6; details: 10 μM compound; [3H] LSD 1.5 nM; human rec. HEK293 cells
Experimental: as §1, §2

5-HT4 receptor = 5-HT4 receptor (Rattus norvegicus, UniProt Q62758); experiment: 5-HT4 functionality test; details: at 100 μM
Text: as §4

Sequence of 5-HT4 receptor (Q62758 whole entry): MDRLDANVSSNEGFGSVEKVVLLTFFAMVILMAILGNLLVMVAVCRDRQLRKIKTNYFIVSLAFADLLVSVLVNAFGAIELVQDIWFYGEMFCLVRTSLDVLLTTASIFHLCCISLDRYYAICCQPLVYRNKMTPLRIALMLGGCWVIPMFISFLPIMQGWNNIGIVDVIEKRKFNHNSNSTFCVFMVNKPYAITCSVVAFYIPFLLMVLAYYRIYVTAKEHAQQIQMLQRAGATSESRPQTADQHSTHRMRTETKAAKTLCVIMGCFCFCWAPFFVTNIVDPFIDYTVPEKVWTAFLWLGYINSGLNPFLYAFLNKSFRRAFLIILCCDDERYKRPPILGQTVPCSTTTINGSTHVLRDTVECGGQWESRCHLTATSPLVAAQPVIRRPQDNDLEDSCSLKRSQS
T2 sequence (P30994 whole entry): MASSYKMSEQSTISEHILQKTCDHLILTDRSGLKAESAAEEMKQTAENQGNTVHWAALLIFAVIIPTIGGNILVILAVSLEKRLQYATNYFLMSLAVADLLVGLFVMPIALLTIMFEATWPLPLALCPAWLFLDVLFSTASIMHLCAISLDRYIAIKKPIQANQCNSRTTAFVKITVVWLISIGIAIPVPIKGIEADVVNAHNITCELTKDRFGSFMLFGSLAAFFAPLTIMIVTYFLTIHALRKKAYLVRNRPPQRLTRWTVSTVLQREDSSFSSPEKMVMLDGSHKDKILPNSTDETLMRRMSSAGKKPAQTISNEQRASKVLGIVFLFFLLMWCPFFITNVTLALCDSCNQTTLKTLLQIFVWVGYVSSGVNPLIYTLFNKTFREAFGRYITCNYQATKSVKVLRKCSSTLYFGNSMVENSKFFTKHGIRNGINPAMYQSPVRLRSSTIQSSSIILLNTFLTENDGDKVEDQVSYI
Sequence of 5-HT1D receptor (P28221 whole entry): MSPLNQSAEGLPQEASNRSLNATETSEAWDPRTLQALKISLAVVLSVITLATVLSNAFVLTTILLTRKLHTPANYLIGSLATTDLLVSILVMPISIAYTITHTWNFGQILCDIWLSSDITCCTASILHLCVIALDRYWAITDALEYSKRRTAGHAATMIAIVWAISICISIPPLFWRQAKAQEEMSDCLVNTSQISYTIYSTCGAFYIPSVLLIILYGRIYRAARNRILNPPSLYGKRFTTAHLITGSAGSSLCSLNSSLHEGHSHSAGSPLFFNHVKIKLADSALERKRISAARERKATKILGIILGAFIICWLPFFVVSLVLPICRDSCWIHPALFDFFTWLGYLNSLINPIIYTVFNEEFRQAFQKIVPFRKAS
Sequence of 5-HT6 receptor (P50406 whole entry): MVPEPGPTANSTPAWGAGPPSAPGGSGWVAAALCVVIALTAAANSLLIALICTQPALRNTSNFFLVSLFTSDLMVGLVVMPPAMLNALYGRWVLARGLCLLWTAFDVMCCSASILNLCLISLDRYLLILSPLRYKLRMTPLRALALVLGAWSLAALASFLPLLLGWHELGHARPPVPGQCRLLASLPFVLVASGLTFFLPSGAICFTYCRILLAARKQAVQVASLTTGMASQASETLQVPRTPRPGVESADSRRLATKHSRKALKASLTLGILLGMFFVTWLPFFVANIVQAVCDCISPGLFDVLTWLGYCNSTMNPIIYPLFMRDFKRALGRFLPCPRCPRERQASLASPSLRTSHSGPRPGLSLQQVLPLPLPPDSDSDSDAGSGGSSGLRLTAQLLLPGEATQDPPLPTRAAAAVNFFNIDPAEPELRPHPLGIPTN

Work on COc1ccc(C=NNC(=N)N)c(Cl)c1OC [N-(2-chloro-3,4-dimethoxybenzylideneamino)guanidine] yielded an inhibition at 10 µM (5-HT2C receptor [1]) of 80%, a pKi (5-HT2C receptor [1]; 10 different concentrations, Cheng-Prusoff, FIG. 1) of 6.06 and a pIC50 (5-HT2C receptor [2]) of 4.78. It also gave a pIC50 (5-HT2B receptor) of 4.21, an inhibition at 10 µM (5-HT3 receptor) of 3.3% and an inhibition at 10 µM (5-HT1D receptor) of -5.7%. For the same compound, the inhibition at 10 µM (5-HT6 receptor) was 2.6% and the “effect on 5-HT4 (functionality)” value (5-HT4 receptor) was “no significant effect”.
